Tests used:
[1] = known; cited from earlier work
microglia cells = assay: Flow-cytometric free radical formation (Rhodamine 123 fluorescence) in cultured microglia cells; format: cell-based, newborn rats; details: for inhibition at 50 µM: Rattus norvegicus, Microglia, * p < 0.05
Experimental: In order to measure the intracellular generation of oxygen free radicals in peritoneal macrophages and in cultures of activated microglia, a flow-cytometric method was used (Rothe, Oser, Valet, Naturwissenschaften, 75, 354, 1988). Specifically, the free radical formation in individual viable cells was determined by measuring the intracellular oxidation of the membrane-permeable and non-fluorescent Dihydrorhodamine 123 (DHR; Eugene, Ore., USA) to the membrane-impermeable and intracellularly "trapped", green fluorescent Rhodamine 123.
DHR was dissolved in a 43.3 mM stock solution in N,N-dimethylformamide (DMF; Merck, Darmstadt, F.R.G.). The method is also suitable for the individual and simultaneous measurement of various subpopulations within a heterogeneous cell population; it therefore allows the exclusion of contaminating populations. Moreover, in another series of tests the identification of the cell type to be measured in each case was simultaneously confirmed during the flow-cytometric measurement by specific immunocytochemical antibody staining. Peritoneal macrophages were obtained by peritoneal washing of white male Wistar rats aged 12 weeks with 10 ml of HBS-Hanks (Serva Feinbiochemica, Heidelberg). The cells were sedimented at 200 g and 20° C. for 5 min and resuspended in HBS-Hanks (4×10^6 cells/ml). All cells were stored for a period of at most 2 hours after preparation until flow-cytrometric analysis at 4° C.
Microglia cultures from the brain of newborn rats were prepared (Giulian & Baker, J. Neuroscience, 1986, 6:2163-2178). After mechanical dissociation of the tissue in Dulbecco's modified Eagle's medium (Sigma Chemie, DMEM), supplemented with 2 g/l of NaHCO3 and 20% heat-inactivated fetal calf serum, the primary cultures were kept in […] culture flasks at 3% pCO2 and 37° C. for 2 to 4 weeks. Cells which grew on the surface of a continuous cell layer were removed by shaking, pelleted and resuspended (3×10^6 cells/ml) in Hepes Hanks buffered salt solution (5 mM Hepes, 0.15M NaCl, pH 7.35; Serva Feinbiochemica, Heidelberg, F.R.G.). In order to test the effect of the compound 1, in the experimental groups the DHR-loaded cells were incubated with 50 μM of the compound according to the invention for 15, 25, 35, 45 and 60 min, to be precise with or without parallel stimulation of free radical formation by concanavalin A (conA, 100 μM/ml). No active substance was added to the respective control groups.
The cell volume and two fluorescences were simultaneously measured in about 10,000 cells per sample using a FACScan flow cytometer (Becton Dickinson, San Jose, Calif., USA). Rhodamine 123 green fluorescence (500-530 nm) and propidium iodide red fluorescence (590-700 nm) were measured with excitation by an argon laser with a wavelength of 488 nm. The flow cytometer was calibrated with standardized yellow-green-fluorescing microspheres of 4.3 μm diameter (Polysciences, St. Goar, F.R.G.).
(§1) Each measurement is based on the individual measurements of the cells contained in a sample (about 10,000). In order to keep the experimental boundary conditions as constant as possible, several experiments were carried out successively on the same day. In such a test series, in each case four different samples of an experimental group and their control were measured by flow cytometry at variously defined points of time. As a rule, 3-4 test series were carried out per experimental group.

[2] = arterial circulatory disorders, known; cited from earlier work
peritoneal macrophages = assay: Flow-cytometric free radical formation (oxidation of Dihydrorhodamine 123 to Rhodamine 123) in peritoneal macrophages, conA-stimulated; format: cell-based, white male Wistar rats; details: for fluorescence, conA ± Comp. 1: 50 μM compound 1, conA-stimulated; for inhibition at 50 µM: conA-stimulated, * p < 0.05
Experimental: Peritoneal macrophages were obtained by peritoneal washing of white male Wistar rats aged 12 weeks with 10 ml of HBS-Hanks (Serva Feinbiochemica, Heidelberg). […] All cells were stored for a period of at most 2 hours after preparation until flow-cytrometric analysis at 4° C.
The cell volume and two fluorescences were simultaneously measured in about 10,000 cells per sample using a FACScan flow cytometer (Becton Dickinson, San Jose, Calif., USA). […] The flow cytometer was calibrated with standardized yellow-green-fluorescing microspheres of 4.3 μm diameter (Polysciences, St. Goar, F.R.G.).
as §1

For `CCCn1cnc2c1c(=O)n(CCCCC(C)=O)c(=O)n2C` [compound 1, 1-(5-oxohexyl)-3-methyl-7-n-propylxanthine], the toxicity [1] is given as “low toxicity”, the “inhibition of free radical formation” value (microglia cells; 50 μM) is given as “clear inhibition” and the “fluorescence, Compound 1” value (microglia cells; 50 μM, 15 min) is given as 2060.6 apparatusspecific units. The “fluorescence, Compound 1” value (microglia cells; 50 μM, 25 min) was 2121.3 apparatusspecific units, the “fluorescence, Compound 1” value (microglia cells; 50 μM, 35 min) was 1170.4 apparatusspecific units and the “maximum depression of cellular Rhodamine 123 fluorescence” value (microglia cells; 50 μM, 35 min) was “about one-third”. For the same compound, the “fluorescence, Compound 1” value (microglia cells; 50 μM, 45 min) was 1556.9 apparatusspecific units, the “fluorescence, Compound 1” value (microglia cells; 50 μM, 60 min) was 910.4 apparatusspecific units and the “significance of effect of compound 1” value (microglia cells; 50 μM, incubation times of over 15 min) was “significant (p<0.05 in the t-test)”. The inhibition at 50 µM (microglia cells; 25 min) was 19%, the inhibition at 50 µM (microglia cells; 35 min) was 27% and the inhibition at 50 µM (microglia cells; 0.75 h, 45 min) was 23%. For the same compound, the inhibition at 50 µM (microglia cells; 1 h, 60 min) was 27%, the vasodilating action [2] was “vasodilating action” and the “suppressive effect on free radical formation, dose dependence” value (peritoneal macrophages; 10 μM and 50 μM) was “dose-dependent”. For the same compound, the “stimulatory effect of conA in the presence of compound 1” value (peritoneal macrophages; 50 μM compound 1) was “blocked”, the “fluorescence, conA ± Comp. 1” value (peritoneal macrophages; 15 min) was 9.0875 apparatusspecific units and the “fluorescence, conA ± Comp. 1” value (peritoneal macrophages; 25 min) was 8.0867 apparatusspecific units. The “fluorescence, conA ± Comp. 1” value (peritoneal macrophages; 35 min) was 25.5 apparatusspecific units, the “fluorescence, conA ± Comp. 1” value (peritoneal macrophages; 45 min) was 31.755 apparatusspecific units and the “significance of effect of compound 1” value (peritoneal macrophages; 50 μM, all measurements with incubation times over 15 min) was “significant (p<0.05 in the t-test)”. It also gave an inhibition at 50 µM (peritoneal macrophages; Rattus norvegicus, Peritoneal macrophage, 25 min, 50 μM) of 60%, an inhibition at 10 µM (peritoneal macrophages; Rattus norvegicus, Peritoneal macrophage, 35 min, 10 μM, maximum conA activation, p<0.05 in the t-test) of 21% and an inhibition at 50 µM (peritoneal macrophages; Rattus norvegicus, Peritoneal macrophage, 35 min, 50 μM) of 37%. The inhibition at 50 µM (peritoneal macrophages; Rattus norvegicus, Peritoneal macrophage, 0.75 h, 50 μM, 45 min) was 32%.
